From article PMC5580309, “Molecular-scale features that govern the effects of O-glycosylation on a carbohydrate-binding module” (Chemical Science, 2015) come the findings set out here.

In this data set the target is T1, thermolysin (Bacillus thermoproteolyticus, UniProt P00800).
T1 sequence (P00800 233-548): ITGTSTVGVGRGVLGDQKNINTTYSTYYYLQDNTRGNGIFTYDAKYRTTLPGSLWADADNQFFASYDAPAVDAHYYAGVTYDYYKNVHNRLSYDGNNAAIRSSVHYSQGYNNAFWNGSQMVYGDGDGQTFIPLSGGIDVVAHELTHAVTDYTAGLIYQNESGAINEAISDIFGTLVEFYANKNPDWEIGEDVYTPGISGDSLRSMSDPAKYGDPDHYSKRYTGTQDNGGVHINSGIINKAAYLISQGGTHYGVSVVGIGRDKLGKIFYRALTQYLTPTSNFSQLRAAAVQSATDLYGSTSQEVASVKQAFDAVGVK
Briefly: Proteolytic stability: half-life to thermolysin degradation. The format is in vitro ADME. Conditions: for Change in Half-Life to Thermolysin Degradation: glyco-variant minus its corresponding unglycosylated CBM (e.g. 2-1), *** not used in the correlation plot; for half-life: thermolysin (isolated protease), thermolysin degradation, mean of three trials ± SD, procedures as described previously (ESI ref 18). On the procedure:
All error bars reported are standard deviations of data achieved from three separate trials.
cellulose that were determined in accordance with our procedures as described previously 18.
The results are presented as mean of three trials ± SD. *Denotes an averaged value of four trials

Bridge positions count the residues as written; N and C are the ends. Peptide text beside a SMILES is read from it. * marks the point of attachment. X1 = OC[C@H]1O[C@H](OC[C@H]2O[C@H](*)[C@@H](O)[C@@H](O)[C@@H]2O)[C@@H](O)[C@@H](O)[C@@H]1O; αGalNAc = CC(=O)N[C@@H]1[C@@H](O)[C@@H](O)[C@@H](CO)O[C@@H]1*; βGlcNAc = CC(=O)N[C@@H]1[C@@H](O)[C@H](O)[C@@H](CO)O[C@H]1*; βGlc = OC[C@H]1O[C@@H](*)[C@H](O)[C@@H](O)[C@@H]1O; βGal = OC[C@H]1O[C@@H](*)[C@H](O)[C@@H](O)[C@H]1O; X6 = C[C@@H]1O[C@@H](*)[C@@H](O)[C@H](O)[C@@H]1O; X9 = OC[C@H]1O[C@H](*)[C@H](O)[C@@H](O)[C@H]1O

In the case of `CC[C@H](C)[C@@H]1NC(=O)CNC(=O)CNC(=O)[C@@H](NC(=O)[C@H](CCC(N)=O)NC(=O)CNC(=O)[C@H](Cc2ccc(O)cc2)NC(=O)[C@H](Cc2c[nH]cn2)NC(=O)[C@H](CO[C@@H]2O[C@H](CO)[C@@H](O)[C@H](O)[C@H]2NC(C)=O)NC(=O)[C@H](CCC(N)=O)NC(=O)[C@@H](N)[C@@H](C)O)CSSC[C@@H]2NC(=O)[C@H]([C@@H](C)O)NC(=O)[C@H]([C@@H](C)O)NC(=O)CNC(=O)[C@H](CO)NC(=O)[C@H](C)NC(=O)[C@H](CSSC[C@@H](C(=O)N[C@@H](CC(C)C)C(=O)O)NC(=O)[C@H](CCC(N)=O)NC(=O)[C@H](CO)NC(=O)[C@H](Cc3ccc(O)cc3)NC(=O)[C@H](Cc3ccc(O)cc3)NC(=O)[C@@H]3CCCN3C(=O)[C@H](CC(N)=O)NC(=O)[C@H](CC(C)C)NC(=O)[C@H](C(C)C)NC(=O)[C@H](CCC(N)=O)NC2=O)NC(=O)[C@H](C(C)C)NC(=O)[C@H]([C@@H](C)O)NC(=O)[C@@H]2CCCN2C(=O)CNC(=O)[C@H](CO)NC(=O)[C@H](Cc2ccc(O)cc2)NC(=O)CNC1=O` [CBM variant 23] (H-TQS(βGlcNAc)HYGQCGGIGYSGPTVCASGTTCQVLNPYYSQCL-OH; disulfide 8-25, 19-35), the “Change in Half-Life to Thermolysin Degradation” value (shortened to “Change in Half-Life”) worked out at 5.4 min and the half-life (usually the time in which the quantity being followed falls by half) was 19.2 ± 0.6 min.
As to `CC[C@H](C)[C@@H]1NC(=O)CNC(=O)CNC(=O)[C@@H](NC(=O)[C@H](CCC(N)=O)NC(=O)CNC(=O)[C@H](Cc2ccc(O)cc2)NC(=O)[C@H](Cc2c[nH]cn2)NC(=O)[C@H](CO[C@@H]2O[C@H](CO)[C@@H](O)[C@H](O)[C@H]2O)NC(=O)[C@H](CCC(N)=O)NC(=O)[C@@H](N)[C@@H](C)O)CSSC[C@@H]2NC(=O)[C@H]([C@@H](C)O)NC(=O)[C@H]([C@@H](C)O)NC(=O)CNC(=O)[C@H](CO)NC(=O)[C@H](C)NC(=O)[C@H](CSSC[C@@H](C(=O)N[C@@H](CC(C)C)C(=O)O)NC(=O)[C@H](CCC(N)=O)NC(=O)[C@H](CO)NC(=O)[C@H](Cc3ccc(O)cc3)NC(=O)[C@H](Cc3ccc(O)cc3)NC(=O)[C@@H]3CCCN3C(=O)[C@H](CC(N)=O)NC(=O)[C@H](CC(C)C)NC(=O)[C@H](C(C)C)NC(=O)[C@H](CCC(N)=O)NC2=O)NC(=O)[C@H](C(C)C)NC(=O)[C@H]([C@@H](C)O)NC(=O)[C@@H]2CCCN2C(=O)CNC(=O)[C@H](CO)NC(=O)[C@H](Cc2ccc(O)cc2)NC(=O)CNC1=O` [CBM variant 24] (H-TQS(βGlc)HYGQCGGIGYSGPTVCASGTTCQVLNPYYSQCL-OH; disulfide 8-25, 19-35), the “Change in Half-Life” value stood at 3 min and the half-life is 16.8 ± 1.8 min.
`CC[C@H](C)[C@@H]1NC(=O)CNC(=O)CNC(=O)[C@@H](NC(=O)[C@H](CCC(N)=O)NC(=O)CNC(=O)[C@H](Cc2ccc(O)cc2)NC(=O)[C@H](Cc2c[nH]cn2)NC(=O)[C@H](CO[C@H]2O[C@H](CO)[C@H](O)[C@H](O)[C@H]2NC(C)=O)NC(=O)[C@H](CCC(N)=O)NC(=O)[C@@H](N)[C@@H](C)O)CSSC[C@@H]2NC(=O)[C@H]([C@@H](C)O)NC(=O)[C@H]([C@@H](C)O)NC(=O)CNC(=O)[C@H](CO)NC(=O)[C@H](C)NC(=O)[C@H](CSSC[C@@H](C(=O)N[C@@H](CC(C)C)C(=O)O)NC(=O)[C@H](CCC(N)=O)NC(=O)[C@H](CO)NC(=O)[C@H](Cc3ccc(O)cc3)NC(=O)[C@H](Cc3ccc(O)cc3)NC(=O)[C@@H]3CCCN3C(=O)[C@H](CC(N)=O)NC(=O)[C@H](CC(C)C)NC(=O)[C@H](C(C)C)NC(=O)[C@H](CCC(N)=O)NC2=O)NC(=O)[C@H](C(C)C)NC(=O)[C@H]([C@@H](C)O)NC(=O)[C@@H]2CCCN2C(=O)CNC(=O)[C@H](CO)NC(=O)[C@H](Cc2ccc(O)cc2)NC(=O)CNC1=O` [CBM variant 25] (H-TQS(αGalNAc)HYGQCGGIGYSGPTVCASGTTCQVLNPYYSQCL-OH; disulfide 8-25, 19-35): the “Change in Half-Life” value was found to be 9 min and the half-life is 22.8 ± 3 min.
On the same counts, the results for `CC[C@H](C)[C@@H]1NC(=O)CNC(=O)CNC(=O)[C@@H](NC(=O)[C@H](CCC(N)=O)NC(=O)CNC(=O)[C@H](Cc2ccc(O)cc2)NC(=O)[C@H](Cc2c[nH]cn2)NC(=O)[C@H](CO[C@H]2O[C@H](CO)[C@H](O)[C@H](O)[C@H]2O)NC(=O)[C@H](CCC(N)=O)NC(=O)[C@@H](N)[C@@H](C)O)CSSC[C@@H]2NC(=O)[C@H]([C@@H](C)O)NC(=O)[C@H]([C@@H](C)O)NC(=O)CNC(=O)[C@H](CO)NC(=O)[C@H](C)NC(=O)[C@H](CSSC[C@@H](C(=O)N[C@@H](CC(C)C)C(=O)O)NC(=O)[C@H](CCC(N)=O)NC(=O)[C@H](CO)NC(=O)[C@H](Cc3ccc(O)cc3)NC(=O)[C@H](Cc3ccc(O)cc3)NC(=O)[C@@H]3CCCN3C(=O)[C@H](CC(N)=O)NC(=O)[C@H](CC(C)C)NC(=O)[C@H](C(C)C)NC(=O)[C@H](CCC(N)=O)NC2=O)NC(=O)[C@H](C(C)C)NC(=O)[C@H]([C@@H](C)O)NC(=O)[C@@H]2CCCN2C(=O)CNC(=O)[C@H](CO)NC(=O)[C@H](Cc2ccc(O)cc2)NC(=O)CNC1=O` [CBM variant 26] (H-TQS(X9)HYGQCGGIGYSGPTVCASGTTCQVLNPYYSQCL-OH; disulfide 8-25, 19-35) are 16.2 min and 30 ± 3 min.
Consider `CC[C@H](C)[C@@H]1NC(=O)CNC(=O)CNC(=O)[C@@H](NC(=O)[C@H](CCC(N)=O)NC(=O)CNC(=O)[C@H](Cc2ccc(O)cc2)NC(=O)[C@H](Cc2c[nH]cn2)NC(=O)[C@H](CO[C@@H]2O[C@H](CO)[C@H](O)[C@H](O)[C@H]2O)NC(=O)[C@H](CCC(N)=O)NC(=O)[C@@H](N)[C@@H](C)O)CSSC[C@@H]2NC(=O)[C@H]([C@@H](C)O)NC(=O)[C@H]([C@@H](C)O)NC(=O)CNC(=O)[C@H](CO)NC(=O)[C@H](C)NC(=O)[C@H](CSSC[C@@H](C(=O)N[C@@H](CC(C)C)C(=O)O)NC(=O)[C@H](CCC(N)=O)NC(=O)[C@H](CO)NC(=O)[C@H](Cc3ccc(O)cc3)NC(=O)[C@H](Cc3ccc(O)cc3)NC(=O)[C@@H]3CCCN3C(=O)[C@H](CC(N)=O)NC(=O)[C@H](CC(C)C)NC(=O)[C@H](C(C)C)NC(=O)[C@H](CCC(N)=O)NC2=O)NC(=O)[C@H](C(C)C)NC(=O)[C@H]([C@@H](C)O)NC(=O)[C@@H]2CCCN2C(=O)CNC(=O)[C@H](CO)NC(=O)[C@H](Cc2ccc(O)cc2)NC(=O)CNC1=O` [CBM variant 27] (H-TQS(βGal)HYGQCGGIGYSGPTVCASGTTCQVLNPYYSQCL-OH; disulfide 8-25, 19-35), for which the “Change in Half-Life” value came out at 3.6 min and the half-life was 17.4 ± 1.2 min.
The matching figures for `CC[C@H](C)[C@@H]1NC(=O)CNC(=O)CNC(=O)[C@@H](NC(=O)[C@H](CCC(N)=O)NC(=O)CNC(=O)[C@H](Cc2ccc(O)cc2)NC(=O)[C@H](Cc2c[nH]cn2)NC(=O)[C@H](CO[C@@H]2O[C@@H](C)[C@@H](O)[C@@H](O)[C@@H]2O)NC(=O)[C@H](CCC(N)=O)NC(=O)[C@@H](N)[C@@H](C)O)CSSC[C@@H]2NC(=O)[C@H]([C@@H](C)O)NC(=O)[C@H]([C@@H](C)O)NC(=O)CNC(=O)[C@H](CO)NC(=O)[C@H](C)NC(=O)[C@H](CSSC[C@@H](C(=O)N[C@@H](CC(C)C)C(=O)O)NC(=O)[C@H](CCC(N)=O)NC(=O)[C@H](CO)NC(=O)[C@H](Cc3ccc(O)cc3)NC(=O)[C@H](Cc3ccc(O)cc3)NC(=O)[C@@H]3CCCN3C(=O)[C@H](CC(N)=O)NC(=O)[C@H](CC(C)C)NC(=O)[C@H](C(C)C)NC(=O)[C@H](CCC(N)=O)NC2=O)NC(=O)[C@H](C(C)C)NC(=O)[C@H]([C@@H](C)O)NC(=O)[C@@H]2CCCN2C(=O)CNC(=O)[C@H](CO)NC(=O)[C@H](Cc2ccc(O)cc2)NC(=O)CNC1=O` [CBM variant 28] (H-TQS(X6)HYGQCGGIGYSGPTVCASGTTCQVLNPYYSQCL-OH; disulfide 8-25, 19-35): 23.4 min and 37.2 ± 6.6 min.
For `CC[C@H](C)[C@@H]1NC(=O)CNC(=O)CNC(=O)[C@@H](NC(=O)[C@H](CCC(N)=O)NC(=O)CNC(=O)[C@H](Cc2ccc(O)cc2)NC(=O)[C@H](Cc2c[nH]cn2)NC(=O)[C@H](CO[C@H]2O[C@H](CO[C@H]3O[C@H](CO)[C@@H](O)[C@H](O)[C@@H]3O)[C@@H](O)[C@H](O)[C@@H]2O)NC(=O)[C@H](CCC(N)=O)NC(=O)[C@@H](N)[C@@H](C)O)CSSC[C@@H]2NC(=O)[C@H]([C@@H](C)O)NC(=O)[C@H]([C@@H](C)O)NC(=O)CNC(=O)[C@H](CO)NC(=O)[C@H](C)NC(=O)[C@H](CSSC[C@@H](C(=O)N[C@@H](CC(C)C)C(=O)O)NC(=O)[C@H](CCC(N)=O)NC(=O)[C@H](CO)NC(=O)[C@H](Cc3ccc(O)cc3)NC(=O)[C@H](Cc3ccc(O)cc3)NC(=O)[C@@H]3CCCN3C(=O)[C@H](CC(N)=O)NC(=O)[C@H](CC(C)C)NC(=O)[C@H](C(C)C)NC(=O)[C@H](CCC(N)=O)NC2=O)NC(=O)[C@H](C(C)C)NC(=O)[C@H]([C@@H](C)O)NC(=O)[C@@H]2CCCN2C(=O)CNC(=O)[C@H](CO)NC(=O)[C@H](Cc2ccc(O)cc2)NC(=O)CNC1=O` [CBM variant 29] (H-TQS(X1)HYGQCGGIGYSGPTVCASGTTCQVLNPYYSQCL-OH; disulfide 8-25, 19-35), the “Change in Half-Life” value was 37.8 min and the half-life is 51.6 ± 1.8 min.
